# Assays:
# [1] = test system: C. albicans strain SC5314; test: Biofilm formation on dentures (crystal violet); format: cell-based; details: for C. albicans biofilm on PFM dental crowns (CV staining) / C. albicans biofilm on acrylic dental crowns (CV staining) / C. albicans biofilm on dental alloy substructures (CV staining): 72 h biofilm, then ILs 25 µM for 2 h; for Visual eradication of C. albicans biofilm formed on dentures: dentures of different materials taken together, ILs 25 µM, 2 h
# Source text: We evaluated the ability of ILs to eradicate C. albicans biofilm formation on a number of dentures, namely acrylic dental crowns, PFM dental crowns and dental alloy substructures (Figure 2). This approach has the following disadvantage: impossibility of reliable biofilm quantification. However, during in vivo Candida spp. infections and biofilm formation, the fungi attach themselves into porous structure of dentures, and thus we selected them for the studies over commonly used discs. Here, an IL concentration of 25 µM was selected for this investigation. In each condition, a C. albicans biofilm was formed after 72 h incubation, and the collected biomass was microscopically evaluated for the presence of hyphae, pseudohyphae and blastoconidia characteristic of C. albicans (Figure 2). Next, the materials were treated with ILs for 2 h and stained with crystal violet (CV). […] Microscopic observations of the stained biomass from dentures exposed to both 1a and 1b (Figure 2, white arrows) confirmed the presence of C. albicans hyphae and blastoconidia (data not shown).
# To assess the influence of ILs on biofilm formation by C. albicans strain SC5314 on dentures, the following materials were used: acrylic dental crowns, porcelain-fused-to-metal (PFMs) dental crowns and dental alloy substructures. All dentures were kind gifts from Prof. M. Łukaszewicz (Wrocław, Poland). Prior to the experiments, the dentures were sterilized by 1 h incubation in 70% pure ethanol (EtOH) solution, washed with sterile water to remove EtOH residues and dried under aseptic conditions. The experiments were performed by aseptically placing dentures in YPD, supplemented with FBS, and inoculating them with YPD-grown C. albicans suspension (0.01% Vol/Vol). After 72 h of incubation at 37 °C, the dentures were treated for 2 h with the addition of ILs (conc. = 25 µM), washed with PBS and fixed with 0.1% CV solution for 10 min, then washed with PBS to remove the stain residue. The dentures were then dried and photographed. Microscopic preparations were made of biofilm samples which were imaged using the Zeiss Axio Imager A2 microscope equipped with Zeiss Axiocam 503 mono microscope camera.
# [2] = test system: ALS1; test: Real time quantitative PCR, relative gene expression; format: cell-based, C. albicans; details: ILs 25 µM, 2 h; relative to untreated cells (100%)
# Description: (§1) Fungal adhesion to biomedical surfaces is strongly related to the structure of the cell wall, and the presence of adhesins (Als proteins) on the surface of the cell. In turn, the progression to biofilm formation is dependent on the ability of C. albicans to form hyphae. In conditions similar to those above (ILs conc. = 25 µM), we examined C. albicans cell wall integrity, its ability to form hyphae, and the level of ALS genes expression, encoding Als1 and Als5 adhesins (Figure 3). […] Despite some reduction, the result was not statistically significant (p = 0.12). On the other hand, after the treatment with IL 2a, the expression of ALS1 and ALS5 genes was reduced by 50 or 55%, respectively (Figure 3C). The results were statistically significant in both cases (p = 0.04 for either ALS gene). However, in case of compounds with alkyl substituents (1a and 1b), the reduction of gene expression was to a lesser degree. […] Despite observing a chain-length dependence, the results were not statistically significant (p = 0.07 for both ALS gene after treatment with 1b).
# (§2) Figure 3 (A) C. albicans calcofluor white staining following a 2 h treatment with 1a,2a,1b ILs (conc. = 25 µM). Control experiment represents untreated calcofluor white-stained cells. Scale bar = 2.5 µm. (B) FBS-induced hyphae formation after 2 h treatment with 1a,2a,1b ILs (conc. = 25 µM). Control condition was C. albicans treated with FBS only. Scale bar = 10 µm. (C) Relative ALS1 and ALS5 gene expression in C. albicans following a 2 h treatment with 1a,2a,1b ILs (conc. = 25 µM). Gene expression levels are reported as means of 2^−∆∆CT values (n = 6) ± SD; normalized to 100% for untreated cells (control). Statistical analyses were performed by comparing expression under treatment with each IL to untreated cells. * p < 0.05.
# (§3) YPD-grown C. albicans cells were pelleted, washed with PBS and treated with ILs (conc. = 25 µM) for 2 h at 37 °C. Next, the cells were pelleted, and concentrated (PBS; OD600 = 20). RNA was isolated using the Total RNA Mini Kit (A&A Biotechnology, Gdańsk, Poland). Synthesis of cDNA and calculation of gene expression levels were performed as previously described. The following gene-specific primers were used: ACT1_F (5′-TCCAGCTTTCTACGTTTCCA-3′), ACT1_R (5′-GTCAAGTCTCTACCAGCCAA-3′), ALS1_F (5′-TGTTGGTGTGACTACTTCCT-3′), ALS1_R (5′-TGT ACC ACT GTG TCA AT-3′), ALS5_F (5′-CTCCACTAGTTATGGGGATGT-3′) and ALS5_R (5′-TGAGGGAGAAATATAAGCGTCA-3′).
# [3] = test system: ALS5; test: as above; format: cell-based, C. albicans; details: ILs 25 µM, 2 h; relative to untreated cells (100%)
# Description: as §1, §2, §3
Structure (SMILES),C. albicans biofilm on PFM dental crowns (CV staining) [1],C. albicans biofilm on acrylic dental crowns (CV staining) [1],C. albicans biofilm on dental alloy substructures (CV staining) [1],Visual eradication of C. albicans biofilm formed on dentures [1],Reduction of ALS1 gene expression [2] [%],Reduction of ALS5 gene expression [3] [%]
"CCCCCCCCCn1cc[n+](CO[C@@H]2C[C@H](C)CC[C@H]2C(C)C)c1 [1a, 1-[(1R,2S,5R)-(−)-menthoxymethyl]-3-nonylimidazolium chloride]",residual CV staining was observed,residual CV staining was observed,residual CV staining was observed,partially,20,10
"CCCCCCCCCCn1cc[n+](CO[C@@H]2C[C@H](C)CC[C@H]2C(C)C)c1 [1b, 3-decyl-1-[(1R,2S,5R)-(−)-menthoxymethyl]imidazolium chloride]",residual CV staining was observed,residual CV staining was observed,residual CV staining was observed,partially,45,40
"CCCCCCCCCOCn1cc[n+](CO[C@@H]2C[C@H](C)CC[C@H]2C(C)C)c1 [2a, 1-(1R,2S,5R)-(−)-menthoxymethyl-3-nonyloxymethylimidazolium chloride]",did not fully protect,protected,protected,totally,50,55
